Reference: the NIST ThermoML archive (doi:10.1016/j.jct.2016.11.032)
± gives the expanded uncertainty stated by the source.

Columns and labels:
[1] = Crystal; DTA
[2] = Molar enthalpy of transition or fusion; conditions: Crystal; DSC

SMILES: CC(C)(C)C(O)(CCc1ccc(Cl)cc1)Cn1cncn1 (configuration not stated) [tebuconazole]
- Normal melting temperature [1]: 100.32 ± 1.1 °C
- Molar enthalpy of transition or fusion [2]: 6.92 ± 0.237 kcal/mol
